Experimental data from US20180000794A1, “COMPOSITION FOR PREVENTION OR TREATMENT OF BRONCHIAL ASTHMA COMPRISING PKR INHIBITOR AS ACTIVE INGREDIENT” (INDUSTRIAL COOPERATION FOUNDATION CHONBUK NATIONAL …, priority 2015, published 2018).

Tests used:
Type in all cases: in vivo, mouse
[1] = test system: IL-4, IL-5, IL-13, IL-17, KC; assay: Cytokines and chemokines in lung tissues by Western blotting, mice with neutrophilic severe asthma; settings: Western blotting of lung tissue proteins; OVA+LPS-induced asthma; FIGS. 4A to 4E
From the text: (§1) 8-week old female C57BL/6 mice were purchased from Orient Bio (Sungnam, Korea) and used as experimental animals. Experimental groups were divided into 4 groups and 5 C57BL/6 mice were assigned to each group. Animals in one experimental group were inhaled with saline and treated with vehicle. Animals in the other three experimental groups were sensitized with ovalbumin (OVA) and lipopolysaccharide (LPS), followed by inhalation of ovalbumin to induce asthma. Animals with induced asthma in one experimental group were treated with vehicle 1 hour before the first inhalation of ovalbumin and 6 hours after the last inhalation of ovalbumin. […]
Quantitation of cytokines and chemokines was confirmed by Western blotting of the proteins in lung tissues. […] Then, the samples were loaded on SDS-PAGE gel and quantitated using an anti-IL-4 antibody (Serotec, UK) against IL-4, an anti-IL-5 antibody (SantaCruz Biotechnology, USA) against IL-5, anti-IL-13 and anti-IL-17 antibodies (R&D Systems, USA) against IL-13 and IL-17, and an anti-KC antibody against keratinocyte-induced chemokine (KC) (BioVision, USA), and the results are shown in FIGS. 4A to 4E.

[2] = test system: mice with neutrophilic severe asthma; assay: Peribronchitis and perivascular inflammation in lung tissues (H&E histology) of mice with neutrophilic severe asthma; settings: C57BL/6 mice, OVA+LPS-induced asthma; H&E stained lung sections, optical microscope 20×; FIG. 2
From the text: as §1, with “ovalbumin. Animals in the other two experimental groups were intraperitoneally administered with 60 μg/kg and […] of the PKR inhibitor [6,8-Dihydro-8-(1H-imidazol-5-ylmethylene)-7H-pyrrolo[2,3-g]benzothiazol-7-one] a total of two times, 1 hour before the first inhalation of ovalbumin and 6 hours after the last inhalation of ovalbumin.” for “ovalbumin.”

[3] = test system: mice with neutrophilic severe asthma; assay: Bronchial hyperresponsiveness (Rrs) to aerosol methacholine in mice with neutrophilic severe asthma; settings: methacholine 5.0 to 50 mg/ml by nebulizer; compared to the group treated with vehicle only; FIG. 3
From the text: as §1
In order to identify the effects of the PKR inhibitor of the present invention on bronchial hyperresponsiveness in mouse models with neutrophilic severe asthma, aerosol methacholine was administered into the airways of mice, and then the changes in airway function were measured. […] At the same time, the mice were administered with methacholine through the ventilator while gradually increasing the dose from 5.0 mg/ml to 50 mg/ml using a nebulizer, and the bronchial hyperresponsiveness (Rrs) was continuously measured. The bronchial hyperresponsiveness was assessed as a percentage of the basal value when the maximum of Rrs values measured at each methacholine concentration was administered to saline control, and the results are shown in FIG. 3.

O=C1Nc2ccc3ncsc3c2/C1=C/c1c[nH]cn1 [PKR inhibitor, 6,8-Dihydro-8-(1H-imidazol-5-ylmethylene)-7H-pyrrolo[2,3-g]benzothiazol-7-one]
cytokines and chemokines in lung tissues (IL-4, IL-5, IL-13, IL-17, KC) [1]: reduced | level of airway inflammation in lung tissues [2]: significantly reduced | Rrs values (bronchial hyperresponsiveness) [3]: significantly reduced | airway resistance dose response curves [3]: shifted to the right
